Source: patent publication US20250340565A1, “CD73 INHIBITOR COMPOUNDS” (AdoRx Therapeutics Limited, priority 2022, published 2025)

Legend:
[1] = molecular target: human (h)CD73 (amino acids Trp27-Lys547) (Homo sapiens, UniProt P21589); test: CD73 inhibition assay (Malachite Green phosphate detection); format: biochemical; conditions: 250 pM hCD73, 12.5 μM AMP, 20 min pre-incubation, absorbance 620 nm
Procedure: Compound inhibition of human (h)CD73 (amino acids Trp27-Lys547, R&D Systems 5795-EN-500) enzymatic activity was tested via the Malachite Green Phosphate Detection Kit (R&D DY996). Experiments were performed in 20 μL Tris buffer (25 mM Tris pH 7.5, 5 mM MgCl2, 0.002% Tween20), with 250 pM of hCD73. Test compounds of interest were prepared in a threefold serial dilution in DMSO and added to the assay to give the appropriate final concentration, with the assay DMSO concentration being 1%. Compounds were pre-incubated for 20 minutes with hCD73 in a 384 well clear plate (Greiner 781101), followed by the addition of adenosine monophosphate (AMP) to 12.5 μM. The enzymatic reaction was carried out for 20 min at room temperature. 5 μL of Malachite kit reagent A was added to stop the reaction (contains 3M H2SO4) and after 10 min, 5 μL of Malachite kit reagent B was added (Malachite Green). After 30 min, absorbance at 620 nm was read on a BMG Pherastar FSX.
Data were normalised to measurements in the absence of competing compound (0% inhibition) and in the presence of 10 μM control compound (100% inhibition).

[2] = molecular target: CD73 activity in U138-MG cells (Homo sapiens (Human), UniProt P21589); test: U138-MG inhibition assay (inorganic phosphate from AMP, PiColorLock Gold); format: cell-based; conditions: 100 μM AMP, 30 min pre-incubation, 1 hour at 37° C.
Procedure: U138-MG cells from ATCC are cultured in DMEM (Gibco 31966) with 10% FBS. Cells are seeded into 96-well culture plates (5,000 cell/well) in 100 μL of media for 24 hr. Cells are washed twice with 200 μL of assay buffer (20 mM HEPES, pH 7.4; 137 mM NaCl; 5.4 mM KCl; 1.3 mM CaCl2; 4.2 mM NaHCO3; 1 mg/mL glucose) to remove residual inorganic phosphate. CD73 inhibitor is added to each well in 100 μl volume and preincubated for 30 mins at 37° C. An equal volume of AMP substrate (Sigma A1572) is added to each well at a final concentration of 100 μM and incubated at 37° C. for 1 hour. Control wells containing cells but lacking added AMP, define the assay signal equivalent to 100% inhibition of CD73 activity. Supernatant is removed for measurement of inorganic phosphate using the PiColorLock Gold kit (Abcam, ab 270004).
The IC50 values of test compounds are determined as the inflection point of the sigmoidal concentration response curve.

CD73 in whole blood = CD73 in whole blood (Homo sapiens (Human), UniProt P21589); test: Whole blood AMP Glo assay; format: cell-based; conditions: whole blood of healthy volunteers, 10 μM AMP, 30 min pre-incubation, 15 min at 37° C., levamisole 1.5 mM
Procedure: Blood is drawn from healthy volunteers by venepuncture and anti-coagulated with Lithium Heparin (10 IU/mi). 150 μl of blood is added to U-bottom polypropylene 96-well assay plates pre-filled with 20 μl of compound dilutions prepared in RPMI also containing the Tissue Non-specific Alkaline Phosphatase inhibitor Levamisole (final assay concentration 1.5 mM). Control wells to define uninhibited CD73 contain DMSO in place of compound. Control wells to define complete stabilization of AMP attributable to CD73 contain LY3475070 (CAS: 2375815-63-5) at 30 μM final assay concentration.
Compounds are pre-incubated with whole blood at 37° C. for 30 minutes. Following this, AMP is added in a 30 μl volume for a final assay concentration of 10 μM, mixed, and the plates are incubated for 15 minutes at 37° C. Final DMSO concentration/well is 0.6% and final volume/well is 200 μL. After incubating with AMP, the plates are placed on ice and then centrifuged at 2000 g for 10 minutes at 4° C. Plasma is removed and then diluted 1:10 with pre-chilled HBSS (Ca2+& Mg2+free) and kept on ice.
The stabilized AMP concentration in diluted plasma is measured using AMP-Glo kit (Promega), in parallel with a standard curve of known AMP concentrations, with a final volume of 40 μl in white flat bottom half-well 96-well plates (Corning). Signal is measured by Luminescence. The IC50 values of test compounds are determined as the inflection point of the sigmoidal concentration response curve.

Sequence of CD73 activity in U138-MG cells (P21589 27-574): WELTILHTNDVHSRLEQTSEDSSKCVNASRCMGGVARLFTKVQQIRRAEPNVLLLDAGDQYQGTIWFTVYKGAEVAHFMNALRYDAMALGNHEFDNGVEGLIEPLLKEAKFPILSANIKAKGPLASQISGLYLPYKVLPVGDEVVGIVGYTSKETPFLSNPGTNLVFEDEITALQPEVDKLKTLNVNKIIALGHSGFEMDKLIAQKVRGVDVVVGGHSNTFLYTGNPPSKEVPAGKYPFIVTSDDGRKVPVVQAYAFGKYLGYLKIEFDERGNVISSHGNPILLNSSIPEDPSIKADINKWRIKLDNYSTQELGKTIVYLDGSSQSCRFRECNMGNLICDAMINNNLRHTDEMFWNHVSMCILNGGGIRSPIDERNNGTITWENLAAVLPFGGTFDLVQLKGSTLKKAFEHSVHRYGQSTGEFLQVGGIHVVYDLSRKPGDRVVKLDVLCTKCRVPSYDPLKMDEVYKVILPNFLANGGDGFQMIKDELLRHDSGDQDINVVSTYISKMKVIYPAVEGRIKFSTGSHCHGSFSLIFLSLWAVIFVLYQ
Sequence of CD73 in whole blood (P21589 27-574): as above

Compound | IC50 [1] [nM] | IC50 [2] [nM] | IC50 (CD73 in whole blood) [nM]
CN1CCOC(COC2CN(c3ncc(F)c4nn(-c5c[nH]c(=O)[nH]c5=O)cc34)CC2(F)F)C1 (centres unmarked) [Example 26.6, 5-[4-[3,3-difluoro-4-[(4-methylmorpholin-2-yl)methoxy]pyrrolidin-1-yl]-7-fluoro-pyrazolo[4,3-c]pyridin-2-yl]-1H-pyrimidine-2,4-dione] | 59 | 11 | –
CC1(C)CN(c2ccnc3sc(-c4c[nH]c(=O)[nH]c4=O)cc23)CC1(F)F [Example 14.1, 5-[4-(3,3-Difluoro-4,4-dimethyl-pyrrolidin-1-yl)thieno[2,3-b]pyridin-2-yl]-1H-pyrimidine-2,4-dione] | 256 | 1320 | –
CC(C)NC(=O)OCC(F)(F)CNc1ncnc2oc(-c3c[nH]c(=O)[nH]c3=O)cc12 [Example 20, [3-[[6-(2,4-Dioxo-1H-pyrimidin-5-yl)furo[2,3-d]pyrimidin-4-yl]amino]-2,2-difluoro-propyl]N-isopropylcarbamate] | 834 | 744 | –
O=c1[nH]cc(-n2cc3c(N4CC(O)C(F)(F)C4)ncc(F)c3n2)c(=O)[nH]1 (centres unmarked) [Example 26.3, 5-[4-(3,3-difluoro-4-hydroxy-pyrrolidin-1-yl)-7-fluoro-pyrazolo[4,3-c]pyridin-2-yl]-1H-pyrimidine-2,4-dione] | 35.1 | 16 | –
COC1CN(c2nccn3nc(-c4c[nH]c(=O)[nH]c4=O)cc23)CC1(F)F (centres unmarked) [Example 25.3, 5-[4-(3,3-difluoro-4-methoxy-pyrrolidin-1-yl)pyrazolo[1,5-a]pyrazin-2-yl]-1H-pyrimidine-2,4-dione] | 54.7 | 91 | –
O=c1[nH]cc(-c2cc3c(N4CCC(OCc5ccccc5)C4)ncnc3s2)c(=O)[nH]1 (centres unmarked) [Example 4.2, 5-[4-(3-Benzyloxypyrrolidin-1-yl)thieno[2,3-d]pyrimidin-6-yl]-1H-pyrimidine-2,4-dione] | 197 | 3140 | –
CC1(C)CCN(c2ncc(Cl)n3nc(-c4c[nH]c(=O)[nH]c4=O)cc23)C1 [Example 25.16, 5-[7-chloro-4-(3,3-dimethylpyrrolidin-1-yl)pyrazolo[1,5-a]pyrazin-2-yl]-1H-pyrimidine-2,4-dione] | – | 11 | 78
O=c1[nH]cc(-n2cc3c(N4C[C@@H]5COC[C@H]5C4)ncnc3n2)c(=O)[nH]1 [Example 13.10, 5-[4-[(3aR,6aR)-1,3,3a,4,6,6a-Hexahydrofuro[3,4-c]pyrrol-5-yl]pyrazolo[3,4-d]pyrimidin-2-yl]-5H-pyrimidine-2,4-dione] | – | 2500 | –
O=c1[nH]cc(-c2cc3c(NCc4ccc(Cl)cc4)ncnc3o2)c(=O)[nH]1 [Example 19.2, 5-[4-[(4-Chlorophenyl)methylamino]furo[2,3-d]pyrimidin-6-yl]-1H-pyrimidine-2,4-dione] | 9730 | – | –
O=c1[nH]cc(-c2cc3c(N4CCC(OCCN5CCCCC5)C4)nccc3s2)c(=O)[nH]1 (centres unmarked) [Example 9, 5-[4-[3-[2-(1-Piperidyl)ethoxy]pyrrolidin-1-yl]thieno[3,2-c]pyridin-2-yl]-1H-pyrimidine-2,4-dione] | 283 | – | –
CC1(C)CN(c2ncnc3sc(-c4c[nH]c(=O)[nH]c4=O)cc23)C1 [Example 1.2, 5-[4-(3,3-Dimethylazetidin-1-yl)thieno[2,3-d]pyrimidin-6-yl]-1H-pyrimidine-2,4-dione] | 428 | 1010 | –
CC1(C)CN(c2ncc(F)n3nc(-c4c[nH]c(=O)[nH]c4=O)cc23)CC1(F)F [Example 25.10, 5-[4-(3,3-difluoro-4,4-dimethyl-pyrrolidin-1-yl)-7-fluoro-pyrazolo[1,5-a]pyrazin-2-yl]-1H-pyrimidine-2,4-dione] | – | 5 | 56
O=c1[nH]cc(-c2cc3c(N4CC(F)(F)C5(CC5)C4)nccn3n2)c(=O)[nH]1 [Example 25.2, 5-[4-(7,7-Difluoro-5-azaspiro[2.4]heptan-5-yl)pyrazolo[1,5-a]pyrazin-2-yl]-1H-pyrimidine-2,4-dione] | 83.7 | 58.8 | –
COC1CN(c2ncc(Cl)n3nc(-c4c[nH]c(=O)[nH]c4=O)cc23)CC1(F)F (centres unmarked) [Example 25.14, 5-[7-Chloro-4-(3,3-difluoro-4-methoxy-pyrrolidin-1-yl)pyrazolo[1,5-a]pyrazin-2-yl]-1H-pyrimidine-2,4-dione] | – | 7 | 20
CC1(C)CN(c2ncnc3nc(-c4c[nH]c(=O)[nH]c4=O)sc23)CC1(F)F [Example 6.1, 5-[7-(3,3-difluoro-4,4-dimethyl-pyrrolidin-1-yl)thiazolo[4,5-d]pyrimidin-2-yl]-1H-pyrimidine-2,4-dione] | 94 | 66 | –
O=c1[nH]cc(-c2cc3c(N4CC(OCCN5CCOCC5)C(F)(F)C4)nccn3n2)c(=O)[nH]1 (centres unmarked) [Example 25.7, 5-[4-[3,3-difluoro-4-(2-morpholinoethoxy)pyrrolidin-1-yl]pyrazolo[1,5-a]pyrazin-2-yl]-1H-pyrimidine-2,4-dione] | 132 | 65 | –
CN1CCOC(COC2CN(c3nccn4nc(-c5c[nH]c(=O)[nH]c5=O)cc34)CC2(F)F)C1 (centres unmarked) [Example 25.6, 5-[4-[3,3-difluoro-4-[(4-methylmorpholin-2-yl)methoxy]pyrrolidin-1-yl]pyrazolo[1,5-a]pyrazin-2-yl]-1H-pyrimidine-2,4-dione] | 99 | 46 | –
Cc1nc(N2CC(C)(C)C(F)(F)C2)c2cc(-c3c[nH]c(=O)[nH]c3=O)nn2c1Cl [Example 25.15, 5-[7-Chloro-4-(3,3-difluoro-4,4-dimethyl-pyrrolidin-1-yl)-6-methyl-pyrazolo[1,5-a]pyrazin-2-yl]-1H-pyrimidine-2,4-dione] | – | 18 | –
COC1CN(c2ncc(F)c3nn(-c4c[nH]c(=O)[nH]c4=O)cc23)CC1(F)F (centres unmarked) [Example 26.2, 5-[4-(3,3-difluoro-4-methoxy-pyrrolidin-1-yl)-7-fluoro-pyrazolo[4,3-c]pyridin-2-yl]-1H-pyrimidine-2,4-dione] | 43.3 | 12 | –
O=c1[nH]cc(-c2cc3c(N4CC(O)C(F)(F)C4)nccn3n2)c(=O)[nH]1 (centres unmarked) [Example 25.5, 5-[4-(3,3-difluoro-4-hydroxy-pyrrolidin-1-yl)pyrazolo[1,5-a]pyrazin-2-yl]-1H-pyrimidine-2,4-dione] | 71.9 | 170 | –
CC1(C)CN(c2ncc(I)n3nc(-c4c[nH]c(=O)[nH]c4=O)cc23)CC1(F)F [Example 25.12, 5-[4-(3,3-difluoro-4,4-dimethyl-pyrrolidin-1-yl)-7-iodo-pyrazolo[1,5-a]pyrazin-2-yl]-1H-pyrimidine-2,4-dione] | – | 38 | –
CC(C)NC(=O)OC1CN(c2ncnc3oc(-c4c[nH]c(=O)[nH]c4=O)cc23)CC1(F)F (centres unmarked) [Example 22.2, [1-[6-(2,4-Dioxo-1H-pyrimidin-5-yl)furo[2,3-d]pyrimidin-4-yl]-4,4-difluoro-pyrrolidin-3-yl]N-isopropylcarbamate] | 170 | 54.9 | –
O=c1[nH]cc(-c2cc3c(N4CCC5(COC5)C4)nccn3n2)c(=O)[nH]1 [Example 25.4, 5-[4-(2-oxa-7-azaspiro[3.4]octan-7-yl)pyrazolo[1,5-a]pyrazin-2-yl]-1H-pyrimidine-2,4-dione] | 141 | 115 | –
